Measurements reported in patent US20120302616A1, “METHOD OF TREATMENT OF OBSESSIVE COMPULSIVE DISORDER WITH ONDANSETRON” (priority 2010, published 2012).
Where “and” joins values, the source holds several entries; their conditions need not be identical. Equal values may be shown once.

Tested on: patients with treatment-resistant OCD
Assay: Ondansetron augmentation of SRI plus antipsychotic therapy, single-blind 12-week study (YBOCS, CGI, MADRS)
Assay type: in vivo, human
Description: Between March 2008 and November 2008, fourteen adults aged 18 to 55 were enrolled in a study at the Institute for Neuroscience, Florence, Italy. […] All diagnoses were established utilizing a structured interview, the Structured Clinical Interview for DSM IV Axis I Disorders (SCID I). (See Spitzer, R. L. et al. ARCH GEN PSYCHIATRY 49(8):624-649) Potential subjects with a history of alcohol or substance abuse, current severe depressive symptoms, bipolar disorder, panic disorder, schizophrenia, other psychiatric conditions, heart disease, arrhythmia, liver problems (including cirrhosis), seizures, glaucoma or serious medical disease were excluded. Patients with hoarding as their only OCD symptom and women of childbearing potential not using a medically acceptable contraceptive method were also excluded. After being fully informed about the study and signing an informed consent approved by the Internal Institutional Review Board, subjects were administered an ondansetron hydrochloride (oral solution) dosage of 0.25 mg twice a day for 6 weeks, followed by 0.5 mg twice a day for 6 weeks for a total observation period of 12 weeks. […] The Y-BOCS, Montgomery-Asberg Depression Rating Scale (MADRS) (see Montgomery, S. A., BR J PSYCHIATRY 1979; 134:382-389) was administered at screening and baseline, and these assessments were repeated at every follow-up visit at 2-week intervals, along with the Clinical Global Impressions-Improvement (CGI-I) rating (see Guy, W. ECDEU Assessment Manual for Psychopharmacology. US Dept Health, Education, and Welfare publication (ADM) 76-338. Rockville, Md.: National Institute of Mental Health; 1976:218-222) and an unpublished Drug Effect scale. The Drug Effect scale asked subjects to rate “How anxious are you now?” on a scale of zero (not at all) to 10 (“the most anxious I have ever been”). Similar rating questions have been “Do you experience appearance or increment in frequency of headaches?”, “Do you experience appearance or increment in frequency of headaches fatigue?” and “Do you experience appearance or increment in frequency of headaches constipation” and so on regarding other common ondansetron side effects (diarrhea, urinary retention, itching, and dizziness). Furthermore, each evening during the first week of study medication, a study psychiatrist called the subject to ask for major or unexpected collateral effects (as chest pain, an unexplained skin rash, or tremors.). […] (See […]. et al., AM J PSYCHIATRY 1997; 154:320-321) Subjects with MADRS scores ≧18 were excluded. Ratings were administered by an investigator who was blind to the treatment condition of the patients. Given the small sample size, mean changes from baseline in rating scales were tested with a non-parametric method based on ranks (Wilcoxon signed rank test), using a two-tailed significance level of p≦0.05. Relationships among rated and demographical variables were tested with Spearman's rank correlation tests, using a two-tailed significance level of p≦0.05. Age, baseline OCD severity, and depressive symptoms were controlled for by stratifying through the Mantel-Haenszel χ2 test. Body mass index (BMI) was adjusted given the differences of ondansetron bioavailability according to BMI.

[1] = End of 6th week, Non responder (n = 5)
[2] = End of 6th week, Responder (n = 9)
[3] = End of 12th week, Non responder (n = 5)
[4] = End of 12th week, Responder (n = 9)
[5] = from baseline, individual patients 1-14

`Cc1nccn1CC1CCc2c(c3ccccc3n2C)C1=O` (centres unmarked) [ondansetron] was tested, and the “YBOCS Score” value (6 weeks, individual patients 1-14) was 25 (3×) and 28 and 17 (2×) and 16 and 27 and 26 and 24 (3×) and 19 and 21, the “average YBOCS score decrease of the whole group” value (6 weeks, n=14) was 16% and the “patients reaching YBOCS criteria for treatment response (decrease of ≧25%)” value (12th week, 9/14) was 64.2%. For the same compound, the “patients very much improved or much improved (CGI-I 1 or 2)” value (12th week, of 14) was “seven”, the “YBOCS Score” value (12 weeks, individual patients 1-14) was 25 (3×) and 15 (2×) and 14 and 30 and 23 and 22 (2×) and 24 and 18 and 17 and 20 and the “average YBOCS score decrease of the whole group” value (12 weeks, n=14) was 23%. For the same compound, the “patients with greater than 25% improvement in OCD symptoms” value (12 weeks, n=14) was “Sixty-four”, the “CGI (mean)” value [1] was 4.6 and the “MADRS (mean)” value [1] was 8.0. For the same compound, the “CGI (mean)” value [2] was 3.4, the “MADRS (mean)” value [2] was 6.7 and the “CGI (mean)” value [3] was 4.8. For the same compound, the “MADRS (mean)” value [3] was 7.6, the “YBOCS (mean)” value [3] was 21.4 and the “CGI (mean)” value [4] was 2.3. The “MADRS (mean)” value [4] was 6.8, the YBOCS score decrease (Patient 11 (citalopram 60 mg/day and risperidone 2 mg/day), 12th week) was no less than 35% and the “Mean MADRS scores change from baseline” value (baseline to the end of week 1) was “did not change significantly”. For the same compound, the “YBOCS Percent Reduction at 6 weeks” value [5] was 20.00% (2×) and 15.00% and .00%, the “YBOCS Percent Reduction at 12 weeks” value [5] was 28.57% and 25.00% (2×) and 30.00% and the “patients with significant improvement in OCD symptoms” value (out of 14, within 12 weeks of treatment) was 9. For the same compound, the “Clinical Global Impressions-Improvement (CGI-I) scores” value (through week 12) was “improved concurrent with improvement in the YBOCS scores” and the “outcome after discontinuation of the ondansetron” value (two responder patients) was “experienced worsening”.
